In data set [1] the test system is PC-3-GFP human prostate tumors. The data set can be described thus: PC-3-GFP orthotopic MetaMouse model (Example 13). The class given is in vivo. On the procedure:
PC-3-GFP human prostate cancer orthotopic MetaMouse® model was conducted by AntiCancer Inc. PC-3-GFP tumor fragments were surgically implanted between the ventral lobes of the prostate and closed by suture. Treatment was started three days after surgery (60 mg/kg, 3×/week, IP). Whole body imaging of GFP-expressing tumors was performed once a week in live animals after GFP-visible tumors were established. Primary tumor sizes were estimated once a week by caliper measurement and tumor volume (mm^3) calculated by the formula (L×W2)/2. Details of the study are as follows:
Male NCr nu/nu mice, 5-6 weeks old, were used in the study. Original breeding pairs were purchased from Taconic, Germantown, N.Y. Test animals were bred and maintained in a HEPA filtered environment for the experiment. Cages, food and bedding were autoclaved. The animal diets were obtained from PMI Nutrition International Inc. (Brentwood, Mo.).
Vehicle, VGX-100 and Isotype were kept at −20° C. until use. VGX-100 and Isotype were diluted with PBS to proper concentration (7.5 mg/ml and 7.5 mg/ml) before use.
Tumor stocks were made by subcutaneously injecting PC-3-GFP cells at a concentration of 5×10^6 cells/100 μl into the flank of nude mice. The tumor tissues harvested from s.c. growth in nude mice were inspected and any grossly necrotic or suspected necrotic or non-GFP tumor tissues were removed. Tumor tissues were subsequently cut into small fragments of approximately 1 mm^3.
The animals were anesthetized with the mixture of Ketaset, Xylazine and PromAce and the surgical area was sterilized using iodine and alcohol. An incision approximately 2 cm long was made in the lower abdomen of the nude mouse using a sterile scalpel and blade (#10). The prostate was exposed and the capsule of the prostate was carefully opened. Two fragments (1 mm^3 each) of PC-3-GFP tissue were sutured between two ventral lobes of the prostate with sterile 8-0 surgical suture (nylon). The abdomen was closed in one layer with sterile 6-0 surgical sutures (silk). All procedures were carried out under a 5× dissecting microscope under HEPA filtered laminar flow hoods.
Treatment in both groups was started three days after SOI.
The FluorVivo imaging system (INDEC Biosystems, Santa Clura, Calif.) was used for whole body imaging. Whole body optical imaging of GFP-expressing tumors was performed once a week in live animals after GFP-visible tumors were established. At necropsy, open imaging was performed in the thoracic and abdomen for inspection of metastasis to the lymph nodes.
Tumor size and body weight measurement: Primary tumor sizes and body weights were measured once a week by using a calipers and an electronic scale, respectively. Primary tumor sizes were estimated once a week by measuring the perpendicular minor dimension (W) and major dimension (L). Approximate tumor volume (mm^3) was calculated by the formula (W2×L)×1/2.
All the animals were sacrificed at day 30 after treatment initiation.
Primary tumor was excised and weighed at necropsy.
The Student's t-test with α equal to 0.05 was used to compare the mean tumor volume and tumor weight among the experimental groups.

For data set [2], the system named is U87MG glioblastoma tumors (xenograft). The data set can be described thus: U87MG glioblastoma xenograft, single agent (Example 6).
Protocol: Antibodies were administered twice per week by intraperitoneal injection.
To initiate the study, 5×10^6 of U-87 cells suspended in 100 μl of a mixture of medium/Matrigel (1:1) were subcutaneously implanted to the nude mice in the right flank region. Cancer cells were planted into 80 mice. Animals were monitored for tumor growth daily after cell implantation. When tumor volumes reached 80-100 mm^3, mice were randomized into 5 groups of 10 mice each using only mice having tumor volumes closest to the mean value. Mice with tumor volumes too big or too small were excluded from the study. Tumor volumes were measured using the formula V=L×W×H×π/6, where L and W represented the longer and shorter diameters of the tumor and H represented the height of the tumor. The treatment with drugs was initiated on the day after randomization. […] The treatment was carried out twice weekly for 27 days. Throughout the entire study, tumor volumes were measured twice weekly and body weights once weekly. […] Unscheduled sacrifices were performed if tumor volumes reached>1,500 mm^3, animals lost>25% of their original body weights, tumor ulceration appeared, or mice became moribund.
Data set [3] deals with T1, VEGF-C binding to the extracellular domain of VEGFR-2 (Homo sapiens, UniProt P49767).
T1 construct: expressed in transfected cells; host or cells: Ba/F3 cells (BA/F3-VEGFR-2)
T1 sequence (P49767 112-227 limits assumed): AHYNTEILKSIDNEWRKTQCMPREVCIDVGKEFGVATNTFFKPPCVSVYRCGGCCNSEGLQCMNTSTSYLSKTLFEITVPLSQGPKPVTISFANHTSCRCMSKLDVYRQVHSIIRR
The data set can be described thus: Ba/F3-VEGFR-2 bioassay of VEGF-C binding. Format: cell-based. As to conditions: [3H]thymidine incorporation, 48 hrs. As for the experimental part:
(§1) The binding of VEGF-C to the extracellular domain of VEGFR-2 or VEGFR-3 was measured using BA/F3-VEGFR-2 or -3/EpoR cells. The response to ligands and VGX-100 was measured by [^3H]-thymidine incorporation following exposure for 48 hrs.
(§2) Bioassays to measure the binding of VEGF-C to the extracellular domain of VEGFR-2 or VEGFR-3 were performed with BA/F3-VEGFR-2 or BA/F3-VEGFR-3/EpoR cells. The response to ligands and VGX-100 was measured by [^3H] thymidine incorporation following exposure for 48 hrs.
On the technique in general: Incorporation of labelled thymidine or its analogues reports DNA synthesis.

Data set [4] concerns KP4 human pancreatic tumors. The data set can be described thus: KP4 pancreatic xenograft (Example 8). The conditions noted are these: for % T/C: after 30 days.
Protocol: VGX-100 was administered at 20 or 40 mg/kg for single therapy and at 40/mg/kg for combination therapy.
To initiate the study, 5×10^6 of KP4 cells suspended in 100 μl of a mixture of medium/Matrigel (1:1) were subcutaneously implanted to the nude mice in the right flank region. Cancer cells were implanted into 90 mice. Animals were monitored for tumor growth daily after cell implantation. When tumor volumes reached 80-100 mm^3, mice were randomized into 5 groups of 10 mice each using only mice having tumor volumes closest to the mean value. Mice with tumor volumes too big or too small were excluded from the study. Tumor volumes were measured using the formula V=L×W×H×π/6, where L and W represented the longer and shorter diameters of the tumor and H represented the height of the tumor. The treatment with drugs was initiated on the day after randomization. […] All treatments were administered intraperitoneally twice weekly for 30 days.
Throughout the entire study, tumor volumes were measured twice weekly and body weights once weekly. […] Unscheduled sacrifices were performed if tumor volumes reached>2,000 mm^3, animals lost>25% of their original body weights, tumor ulceration appeared, or mice became moribund. At the end of the experiment, tumors were removed, embedded in Optimal Cutting Temperature (OCT), and stored at −80° C. for IHC analysis. Gross examination was conducted on liver, lung, spleen, kidneys, testes, and prostate. If no abnormal observation was detected on these organs, the tissues were discarded.
Tumor size was measured 2-3 times weekly with calipers. Size of tumors relative to controls is calculated after 30 days of treatment.
The test system of data set [5] is VEGF-C stimulated HUVEC proliferation. The data set can be described thus: HUVEC proliferation assay. As to conditions: 48 hrs, WST-1. Format: cell-based. On the procedure:
HUVEC proliferation assays were conducted for 48 hrs and cell number measured with WST-1 reagent (Roche).
Background: Tetrazolium assays rely on reduction of a dye to a coloured formazan, in cell work by metabolically active cells.

For data set [6], the system named is PC-3 human prostate tumors (xenograft). The data set can be described thus: Subcutaneous PC-3 xenograft, single therapy (Example 2). The class given is in vivo, nude mice. As for the experimental part: Cells were implanted into 80 mice. […] The treatment with drugs began on the day after randomization. […] At the end of the experiment, statistical analysis was performed on the tumor growth rate of each treatment group versus that of the control.

A further data set addresses T2, VEGF-C (Homo sapiens, UniProt P49767).
T2 construct: purchased R&D Systems
T2 sequence (P49767 112-227): T1 sequence (P49767 112-227 limits assumed)
The data set can be described thus: Direct binding ELISA / BiaCore affinity of VGX-100. The conditions noted are these: capture antigens VEGF-C, VEGF-D or VEGF. As for the experimental part:
VEGF-C antibody VGX-100 was assessed by a direct binding ELISA using VEGF-C, VEGF-D or VEGF (R&D Systems) as capture antigens and bound VGX-100 detected with rabbit anti-human IgG-HRP (Abcam).
A general note: An ELISA detects its analyte on a solid surface through an enzyme-linked reagent.

The target in data set [7] is T3, VEGF-C binding to the extracellular domain of VEGFR-3 (Homo sapiens, UniProt P49767).
T3 construct: expressed in transfected cells; host or cells: Ba/F3 cells (BA/F3-VEGFR-3/EpoR)
T3 sequence (P49767 112-227 limits assumed): T1 sequence (P49767 112-227 limits assumed)
The data set can be described thus: Ba/F3-VEGFR-3/EpoR bioassay of VEGF-C binding. The class given is cell-based. As to conditions: [3H]thymidine incorporation, 48 hrs. As for the experimental part:
as §1, §2

[8] abbreviates: VGX-100 10 and 20 mg/kg IP twice weekly.
Setting [9] is: VGX-100 40 mg/kg and/or Avastin 10 mg/kg.

“Also recorded” adds a separate entry of the source.

As to “VGX-100: VEGF-C antibody; heavy chain SEQ ID NO: 3, light chain SEQ ID NO: 4”, in data set [1] (60 mg/kg IP), the “Reduction of incidence of metastasis to local lymph nodes vs control” value is 55%. Moreover, the “Toxicity / body weight” value in data set [1] (60 mg/kg IP 3x/week) is recorded as “no obvious toxicity; also recorded: No acute body weight loss”. Further, the “Metastatic incidence to lymph nodes vs control” value in data set [1] (FOTI, Fisher's exact test) is on record as “significant difference in metastatic incidence”. In data set [1] (FOTI, of 19 analyzed animals, 60 mg/kg IP), the “# of animals with lymph node (LN) mets” value is 6. The “Animals with lymph node (LN) mets, percent” value in data set [1] (FOTI, 60 mg/kg IP) is 32%. Further, in data set [1] (day 28), the “Tumor volume vs isotype control” value is given as “statistically significant reduction”. Besides, the “Reduction of mean tumor volume vs isotype control” value in data set [1] (day 28, 60 mg/kg IP) was found to be 59%. Besides, the “Mean tumor volume (mm^3) mean ± SE” value in data set [1] (day 28 after treatment, caliper, 60 mg/kg IP 3x/week) stood at 176.8 ± 183.2 mm^3. Besides, in data set [1] (day 30), the “Tumor weight vs isotype control” value is recorded as “A statistically significant reduction was not observed”. Besides, the “Mean tumor weight (g) mean ± SE” value in data set [1] (day 30 after treatment, 60 mg/kg IP) was 0.95 ± 0.45 g. The “Tumor growth vs vehicle control” value in data set [2] (VGX-100 40 mg/kg IP twice weekly) is listed as “significantly inhibited tumor growth”. Besides, the “Tumor volume response” value in data set [2] (setting [8]) is listed as “improved over the negative control”; in data set [6] (VGX-100 40 mg/kg IP twice weekly, 40 mg/kg) it was “significant single-agent activity; also recorded: efficacy equivalent to bevacizumab at 10 mg/kg”; in data set [6] (setting [8]), “improved over the negative control”. Moreover, in data set [3], the “Blocking of VEGF-C binding to VEGFR-2” value was “blocked VEGF-C binding”. The “Mean Tumor Vol. at D30 (mm3)” value is on record as 1492.77 mm3 in data set [4] (VGX-100 20 mg/kg), 693.24 mm3 in data set [4] (setting [9]) and 958.93 mm3 in data set [4] (VGX-100 60 mg/kg). For the same substance, the “% T/C” value is 76.0% in data set [4] (VGX-100 20 mg/kg), 35.3% in data set [4] (setting [9]) and 48.8% in data set [4] (VGX-100 60 mg/kg). For the same substance, the “Inhibition of VEGF-C stimulated HUVEC proliferation” value in data set [5] was “inhibited VEGF-C stimulated HUVEC proliferation”. In the data set with VEGF-C, the “Binding selectivity in direct binding ELISA” value is “selectively recognized and bound to VEGF-C”. Further, the “Blocking of VEGF-C binding to VEGFR-3” value in data set [7] was “blocked VEGF-C binding”.

Source of the values: patent US20130344065A1, “Combination Treatment with VEGF-C Antagonists” (Vegenics Pty Ltd, priority 2010, published 2013).
